Each block holds one molecule with its values, some of them ahead of it.
Assay: Stability investigation of crystal forms A, B, C, D and the amorphous form of the compound of formula (1) (related substances by HPLC, moisture, XRD, DSC)
Type: physicochemical
Settings: for Stability, testing conclusion: under the above conditions (all placement conditions of the study)
Procedure: (§1) 2.1 Investigation conditions for the crystal form A of the compound of formula (1): • placed at 105° C. for 5 days, opened, and sampled for testing on day 5; • placed at 60° C. for 10 days, opened/closed, and sampled for testing on day 10; • placed at 25° C. and RH 92.5% for 10 days, opened/closed, and sampled for testing on day 10; • placed at 40° C. and RH 75% for one month, opened/closed, and sampled for testing on the last day of the month; and • under illumination, employing a closed way (polyethylene bag + composite film bag) to meet illumination requirements, and sampled for testing.
Illumination requirements: ICH Q1B Stability Testing: Photostability Testing of New Drug Substances and Products.
Determination of related substances: determined according to 0512 HPLC in General Principle (Volume IV) of Chinese Pharmacopoeia (2015 Version).
Moisture determination: determined according to 2 Coulometric Titration in the First Method (Karl Fischer titration) of 0832 Moisture Determination Method in General Principle (Volume IV) of Chinese Pharmacopoeia (2015 Version).
XRD determination: determined according to the Second Method-Powder X-ray Diffraction Method of 0451 X-ray Diffraction Method in General Principle (Volume IV) of Chinese Pharmacopoeia (2015 Version).
DSC determination: precisely weighing an appropriate amount of sample in a Standard disc, covering the Standard disc, placing the Standard disc in a sample disc position in a DSC furnace, placing a blank disc of the same type in a reference position, and carrying out the following temperature rise program:
1. Equilibrate at 25° C.; and
as §1, with “B” for “A”
as §1, with “C” for “A”
1. Equilibrate at 25° C.; and 2. Ramp 10° C. to 200° C.
as §1, with “D” for “A”
as §1, with “amorphous” for “crystal”, “form” for “form A”, “(1):” for “(1): • placed at 105° C. for 5 days, opened, and sampled for testing on day 5;”

[1] = 25° C., RH 92.5%, closed, 10 days
[2] = 25° C., RH 92.5%, opened, 10 days

Moisture % (0 day): 0.70%
Total related % (0 day): 0.21%
Trait (0 day): Off-white power
Moisture % [1]: 2.8%
Total related % [1]: 0.35%
Trait [1]: Off-white power
Moisture % [2]: 3.1%
Total related % [2]: 0.38%
Trait [2]: Off-white power
Moisture % (40° C., RH 75%, closed, 1 M): 2.1%
Total related % (40° C., RH 75%, closed, 1 M): 2.98%
Trait (40° C., RH 75%, closed, 1 M): Off-white power
Moisture % (40° C., RH 75%, opened, 1 M): 1.9%
Total related % (40° C., RH 75%, opened, 1 M): 2.86%
Trait (40° C., RH 75%, opened, 1 M): Off-white power
Moisture % (60° C., closed, 10 days): 0.73%
Total related % (60° C., closed, 10 days): 3.92%
Trait (60° C., closed, 10 days): Off-white power
Moisture % (60° C., opened, 10 days): 0.56%
Total related % (60° C., opened, 10 days): 4.30%
Trait (60° C., opened, 10 days): Off-white power
Moisture % (Avoid light for 18 days): 1.26%
Total related % (Avoid light for 18 days): 0.42%
Trait (Avoid light for 18 days): Off-white power
Structure (SMILES): C[C@H]1CCN1c1nc(N2C[C@@H]3[C@@H](CC(=O)O)[C@@H]3C2)c2c(n1)C(F)(F)CC2 [Amorphous form, 2-((1R,5S,6R)-3-(7,7-difluoro-2-((S)-2-methylazetidin-1-yl)-6,7-dihydro-5H-cyclopenta[d]pyrimidin-4-yl)-3-azabicyclo[3.1.0]hexan-6-yl)acetic acid]
Stability, testing conclusion: less stable than that of the crystal form A, the crystal form B, the crystal form C and the crystal form D

DSC (0 day): 170.33 °C
Moisture % (0 day): 0.53%
Total related % (0 day): 0.18%
Trait (0 day): Off-white power
DSC [1]: 170.42 °C
Moisture % [1]: 0.54%
Total related % [1]: 0.24%
Trait [1]: Off-white power
XRD [1]: Same as day 0
DSC [2]: 170.23 °C
Moisture % [2]: 0.54%
Total related % [2]: 0.24%
Trait [2]: Off-white power
XRD [2]: Same as day 0
DSC (40° C., RH 75%, closed, 1 M): 170.38 °C
Moisture % (40° C., RH 75%, closed, 1 M): 0.57%
Total related % (40° C., RH 75%, closed, 1 M): 0.22%
Trait (40° C., RH 75%, closed, 1 M): Off-white power
XRD (40° C., RH 75%, closed, 1 M): Same as day 0
DSC (40° C., RH 75%, opened, 1 M): 170.32 °C
Moisture % (40° C., RH 75%, opened, 1 M): 0.46%
Total related % (40° C., RH 75%, opened, 1 M): 0.24%
Trait (40° C., RH 75%, opened, 1 M): Off-white power
XRD (40° C., RH 75%, opened, 1 M): Same as day 0
DSC (60° C., closed, 10 days): 170.34 °C
Moisture % (60° C., closed, 10 days): 0.61%
Total related % (60° C., closed, 10 days): 0.24%
Trait (60° C., closed, 10 days): Off-white power
XRD (60° C., closed, 10 days): Same as day 0
DSC (60° C., opened, 10 days): 170.26 °C
Moisture % (60° C., opened, 10 days): 0.54%
Total related % (60° C., opened, 10 days): 0.25%
Trait (60° C., opened, 10 days): Off-white power
XRD (60° C., opened, 10 days): Same as day 0
DSC (105° C., opened, 5 days): 170.65 °C
Moisture % (105° C., opened, 5 days): 0.54%
Total related % (105° C., opened, 5 days): 0.30%
Trait (105° C., opened, 5 days): Off-white power
XRD (105° C., opened, 5 days): Same as day 0
DSC (Avoid light for 18 days): 170.20 °C
Moisture % (Avoid light for 18 days): 0.47%
Total related % (Avoid light for 18 days): 0.19%
Trait (Avoid light for 18 days): Off-white power
XRD (Avoid light for 18 days): Same as day 0
Stability, testing conclusion: relatively stable
Structure (SMILES): C[C@H]1CCN1c1nc(N2C[C@@H]3[C@@H](CC(=O)O)[C@@H]3C2)c2c(n1)C(F)(F)CC2 [Crystal form A, 2-((1R,5S,6R)-3-(7,7-difluoro-2-((S)-2-methylazetidin-1-yl)-6,7-dihydro-5H-cyclopenta[d]pyrimidin-4-yl)-3-azabicyclo[3.1.0]hexan-6-yl)acetic acid]

DSC (0 day): 169.28 °C
Moisture % (0 day): 0.17%
Total related % (0 day): 0.08%
Trait (0 day): White powder
DSC [1]: 169.47 °C
Moisture % [1]: 0.35%
Total related % [1]: 0.10%
Trait [1]: White powder
XRD [1]: Same as day 0
DSC [2]: 169.31 °C
Moisture % [2]: 0.26%
Total related % [2]: 0.10%
Trait [2]: White powder
XRD [2]: Same as day 0
DSC (40° C., RH 75%, closed, 1 M): 169.57 °C
Moisture % (40° C., RH 75%, closed, 1 M): 0.39%
Total related % (40° C., RH 75%, closed, 1 M): 0.08%
Trait (40° C., RH 75%, closed, 1 M): White powder
XRD (40° C., RH 75%, closed, 1 M): Same as day 0
DSC (40° C., RH 75%, opened, 1 M): 169.43 °C
Moisture % (40° C., RH 75%, opened, 1 M): 0.35%
Total related % (40° C., RH 75%, opened, 1 M): 0.09%
Trait (40° C., RH 75%, opened, 1 M): White powder
XRD (40° C., RH 75%, opened, 1 M): Same as day 0
DSC (60° C., closed, 10 days): 169.35 °C
Moisture % (60° C., closed, 10 days): 0.21%
Total related % (60° C., closed, 10 days): 0.11%
Trait (60° C., closed, 10 days): White powder
XRD (60° C., closed, 10 days): Same as day 0
DSC (60° C., opened, 10 days): 169.27 °C
Moisture % (60° C., opened, 10 days): 0.26%
Total related % (60° C., opened, 10 days): 0.13%
Trait (60° C., opened, 10 days): White powder
XRD (60° C., opened, 10 days): Same as day 0
DSC (105° C., opened, 5 days): 169.53 °C ° C.
Moisture % (105° C., opened, 5 days): 0.28%
Total related % (105° C., opened, 5 days): 0.22%
Trait (105° C., opened, 5 days): White powder
XRD (105° C., opened, 5 days): Same as day 0
DSC (Avoid light for 18 days): 169.15 °C
Moisture % (Avoid light for 18 days): 0.17%
Total related % (Avoid light for 18 days): 0.07%
Trait (Avoid light for 18 days): White powder
XRD (Avoid light for 18 days): Same as day 0
Stability, testing conclusion: relatively stable
Structure (SMILES): C[C@H]1CCN1c1nc(N2C[C@@H]3[C@@H](CC(=O)O)[C@@H]3C2)c2c(n1)C(F)(F)CC2 [Crystal form B, 2-((1R,5S,6R)-3-(7,7-difluoro-2-((S)-2-methylazetidin-1-yl)-6,7-dihydro-5H-cyclopenta[d]pyrimidin-4-yl)-3-azabicyclo[3.1.0]hexan-6-yl)acetic acid]

DSC (0 day): 172.44 °C
Moisture % (0 day): 0.24%
Total related % (0 day): 1.25%
Trait (0 day): Off-white power
DSC [1]: 172.36 °C
Moisture % [1]: 0.09%
Total related % [1]: 1.06%
Trait [1]: Off-white power
XRD [1]: Same as day 0
DSC [2]: 172.35 °C
Moisture % [2]: 0.11%
Total related % [2]: 1.07%
Trait [2]: Off-white power
XRD [2]: Same as day 0
DSC (40° C., RH 75%, closed, 1 M): 172.36 °C
Moisture % (40° C., RH 75%, closed, 1 M): 0.19%
Total related % (40° C., RH 75%, closed, 1 M): 1.30%
Trait (40° C., RH 75%, closed, 1 M): Off-white power
XRD (40° C., RH 75%, closed, 1 M): Same as day 0
DSC (40° C., RH 75%, opened, 1 M): 172.35 °C
Moisture % (40° C., RH 75%, opened, 1 M): 0.13%
Total related % (40° C., RH 75%, opened, 1 M): 1.31%
Trait (40° C., RH 75%, opened, 1 M): Off-white power
XRD (40° C., RH 75%, opened, 1 M): Same as day 0
DSC (60° C., closed, 10 days): 172.21 °C
Moisture % (60° C., closed, 10 days): 0.08%
Total related % (60° C., closed, 10 days): 2.20%
Trait (60° C., closed, 10 days): Off-white power
XRD (60° C., closed, 10 days): Same as day 0
DSC (60° C., opened, 10 days): 172.21 °C
Moisture % (60° C., opened, 10 days): 0.08%
Total related % (60° C., opened, 10 days): 2.09%
Trait (60° C., opened, 10 days): Off-white power
XRD (60° C., opened, 10 days): Same as day 0
Total related substances, change (105° C. for 5 days and 60° C. for 10 days): slightly increased
DSC (105° C., opened, 5 days): 171.85 °C
Moisture % (105° C., opened, 5 days): 0.24%
Total related % (105° C., opened, 5 days): 1.77%
Trait (105° C., opened, 5 days): Off-white power
XRD (105° C., opened, 5 days): Same as day 0
DSC (Avoid light for 18 days): 172.42 °C
Moisture % (Avoid light for 18 days): 0.13%
Total related % (Avoid light for 18 days): 1.25%
Trait (Avoid light for 18 days): Off-white power
XRD (Avoid light for 18 days): Same as day 0
Related substances, content, moisture, and XRD stability (opened/closed, 25° C. and RH 92.5% for 10 days, 40° C. and RH 75% for one month): good
Structure (SMILES): C[C@H]1CCN1c1nc(N2C[C@@H]3[C@@H](CC(=O)O)[C@@H]3C2)c2c(n1)C(F)(F)CC2 [Crystal form C, 2-((1R,5S,6R)-3-(7,7-difluoro-2-((S)-2-methylazetidin-1-yl)-6,7-dihydro-5H-cyclopenta[d]pyrimidin-4-yl)-3-azabicyclo[3.1.0]hexan-6-yl)acetic acid]

Source: patent publication US20230271947A1, “SALT AND CRYSTAL FORM OF KETOHEXOKINASE INHIBITOR AND USE THEREOF” (SHANDONG XUANZHU PHARMA CO., LTD., priority 2020, published 2023)
